Data as given in patent US10309967B2, “Methods of diagnosing bipolar disorders and screening for therapeutic compounds” (National University Corporation Chiba University, priority 2015, dated 2019).
Entries after “also recorded” stand apart in the source; their conditions may differ.

Assays:
[1] = system: serum samples from rats; experiment: Metabolomics of serum samples from rats chronically treated with Li or VPA; format: in vivo, rat; settings: chronic (4-weeks) treatment; for 2,3-Diphosphoglyceric acid Mean / 2-Hydroxyglutaric acid Mean / 2-Oxoglutaric acid Mean / 2-Oxoisovaleric acid Mean / 2-Phosphoglyceric acid Mean / 3-Phosphoglyceric acid Mean / ADP-ribose Mean / AMP Mean / ATP Mean / Ala Mean / Arg Mean / Argininosuccinic acid Mean / Asn Mean / Asp Mean / Betaine Mean / Carnitine Mean / Carnosine Mean / Choline Mean / Citric acid Mean / Citrulline Mean / Creatine Mean / Creatinine Mean / Cystathionine Mean / Fructose 1,6-diphosphate Mean / Fructose 6-phosphate Mean / Fumaric acid Mean / GDP Mean / GMP Mean / GTP Mean / Gln Mean / Glu Mean / Glucose 6-phosphate Mean / Glutathione (GSSG) Mean / Gly Mean / Glycerol 3-phosphate Mean / Glycolic acid Mean / His Mean / Hydroxyproline Mean / IMP Mean / Ile Mean / Isocitric acid Mean / Lactic acid Mean / Leu Mean / Lys Mean / Malic acid Mean / Met Mean / Mevalonic acid Mean / N,N-Dimethylglycine Mean / N-Carbamoylaspartic acid Mean / NAD^+ Mean / Ornithine Mean / Phe Mean / Phosphocreatine Mean / Pro Mean / Putrescine Mean / Pyruvic acid Mean / Ribose 1-phosphate Mean / Ribose 5-phosphate Mean / Ribulose 5-phosphate Mean / Sarcosine Mean / Ser Mean / Succinic acid Mean / Thr Mean / Trp Mean / Tyr Mean / UDP-glucose Mean / Urea Mean / Uric acid Mean / Val Mean / cAMP Mean / cGMP Mean / cis-Aconitic acid Mean / β-Ala Mean: rat serum
Description: Data from human samples are presented as mean±standard deviation (SD). Statistical analysis was performed using SAS software version 9.3 (SAS Institute, Cary, N.C.). Analyses of metabolites between control and BD groups were performed using unpaired t-tests and Wilcoxon rank sum tests. A logistic regression model with a stepwise selection method was used for the multivariate analysis and multiple regression analysis (consistent with description in Allen et al., Technometrics. 1974; 16(1):125-127; and Miller et al., Chapman and Hall. 1974, which are incorporated in their entireties by reference herein). […] The Mann-Whitney U test (two-tailed) was used to evaluate changes in expression levels of the ACO and IDH genes between control and BD groups. Rat data are presented as mean±SD. To determine the effects of drug treatment, a one-way ANOVA, followed by the post hoc Dunnett's test was used. P values of less than 0.05 for two-tailed tests were considered statistically significant.
(§1) The CSF concentrations of 116 major metabolites from several pathways were measured. […] Male Sprague-Dawley rats (Japan SLC Inc., Shizuoka, Japan) aged 6 weeks old were used in this study. All rats were housed in groups of three per cage in a room maintained at 23° C.±2° C. and 60±10% humidity with a 12/12 hour light/dark cycle (lights on at 7:00 a.m.). The rats were given free access to food and water. Animal care and use were conducted in accordance with the Institutional Guidelines for Animal Care and Use of Otsuka Pharmaceutical Co., Ltd. (Tokushima, Japan). […] The drinking water was replaced twice a week. […] All animals were decapitated on day 30 after CSF sampling, and brain regions (prefrontal cortex, and hippocampus) were dissected rapidly on ice. Metabolomic analyses of rat CSF samples were performed as described herein.
The serum concentrations of 116 major metabolites from several pathways were measured.

[2] = system: Aco2; experiment: Quantitative PCR of Aco2 mRNA in rat prefrontal cortex and hippocampus after Li or VPA; format: in vivo; settings: normalized to Gapdh; for Aco2 gene expression: relative to control, mean ± SD; for mRNA levels of Aco2: rat prefrontal cortex and hippocampus, chronic (4-weeks) treatment, vs control
Description: (§2) Real-time quantitative RT-PCR analysis was conducted using an ABI7900HT Fast Real-Time PCR System (Applied Biosystems, Foster City, Calif.) in both human and rat samples. TaqMan probes and primers for the seven genes (ACO1, ACO2, IDH1, IDH2, IDH3A, IDH3B, IDH3G) and GAPDH (an internal control) (Table 11) were TAQMAN® Gene Expression Assays products (Applied Biosystems).
as §1
(§3) Prefrontal cortex, and hippocampus were dissected rapidly on ice and stored in RNA later (Applied Biosystems) at 4° C. until used for RNA isolation, cDNA synthesis and polymerase chain reaction (PCR) amplification. The total RNA was extracted using the RNeasy Lipid Tissue Mini Kit (QIAGEN) following the instructions of manufacturer. RNA yield and integrity was assessed using Nanodrop (NanoDrop Technologies). Reverse transcription of total RNA was done using the […] VILO cDNA Synthesis Kit (Invitrogen). In the quantitative PCR, the cDNA was amplified using commercial TaqMan assays (Applied Biosystems) for rat Idh3A (Rn00586270_m1), Idh3B (Rn00504589_g1), Aco1 (Rn00569045_m1), Aco2 (Rn00577876_m1) and Gapdh (Rn01775763_g1) with an ABI 7500 Fast Real-Time PCR system (Applied Biosystems). (Table 17) Reactions were performed in triplicates. All reactions were normalized to Gapdh and presented as relative expression changes compared to control.

[3] = system: Idh3a; experiment: Quantitative PCR of Idh3a mRNA in rat prefrontal cortex and hippocampus after Li or VPA; format: in vivo; settings: normalized to Gapdh; for Idh3a gene expression: relative to control, mean ± SD; for mRNA levels of Idh3a: rat prefrontal cortex and hippocampus, chronic (4-weeks) treatment, vs control
Description: as §2, §1, §3

[4] = system: Idh3b; experiment: Quantitative PCR of Idh3b mRNA in rat prefrontal cortex and hippocampus after Li or VPA; format: in vivo; settings: normalized to Gapdh; for Idh3b gene expression: relative to control, mean ± SD; for mRNA levels of Idh3b: rat prefrontal cortex and hippocampus, chronic (4-weeks) treatment, vs control
Description: as §2, §1, §3

## O=C([O-])[O-].[Li+].[Li+] [Li, lithium carbonate]
[1]
  2,3-Diphosphoglyceric acid Mean: 2.3
  2-Hydroxyglutaric acid Mean: 2.7
  2-Oxoglutaric acid Mean: 64
  2-Oxoisovaleric acid Mean: 12
  2-Phosphoglyceric acid Mean: 0.7
  3-Phosphoglyceric acid Mean: 5.5
  ADP-ribose Mean: 0.2
  AMP Mean: 0.5
  ATP Mean: 4.3
  Ala Mean: 671
  Arg Mean: 206
  Argininosuccinic acid Mean: 0.6
  Asn Mean: 87
  Asp Mean: 13
  Betaine Mean: 259
  Carnitine Mean: 65
  Carnosine Mean: 0.2
  Choline Mean: 15
  Citric acid Mean: 212
  Citrulline Mean: 103
  Creatine Mean: 104
  Creatinine Mean: 26
  Cystathionine Mean: 1.2
  Fructose 1,6-diphosphate Mean: 0.3
  Fructose 6-phosphate Mean: 0.10
  Fumaric acid Mean: 4.0
  GDP Mean: 0.5
  GMP Mean: 0.12
  GTP Mean: 2.0
  Gln Mean: 817
  Glu Mean: 140
  Glucose 6-phosphate Mean: 0.6
  Glutathione (GSSG) Mean: 0.5
  Gly Mean: 340
  Glycerol 3-phosphate Mean: 3.1
  Glycolic acid Mean: 9.4
  His Mean: 89
  Hydroxyproline Mean: 65
  IMP Mean: 0.14
  Ile Mean: 119
  Isocitric acid Mean: 9.5
  Lactic acid Mean: 2,764
  Leu Mean: 199
  Lys Mean: 468
  Malic acid Mean: 23
  Met Mean: 59
  Mevalonic acid Mean: 0.05
  N,N-Dimethylglycine Mean: 18
  N-Carbamoylaspartic acid Mean: 0.02
  NAD^+ Mean: 1.1
  Ornithine Mean: 75
  Phe Mean: 67
  Phosphocreatine Mean: 0.7
  Pro Mean: 272
  Putrescine Mean: 0.4
  Pyruvic acid Mean: 126
  Ribose 1-phosphate Mean: 0.3
  Ribose 5-phosphate Mean: 0.04
  Ribulose 5-phosphate Mean: 0.2
  Sarcosine Mean: 7.2
  Ser Mean: 319
  Succinic acid Mean: 17
  Thr Mean: 298
  Trp Mean: 148
  Tyr Mean: 95
  UDP-glucose Mean: 0.6
  Urea Mean: 6,360
  Uric acid Mean: 23
  Val Mean: 283
  cAMP Mean: 0.04
  cGMP Mean: 0.02
  cis-Aconitic acid Mean: 4.3
  β-Ala Mean: 2.0
[1]; rats, vs control
  serum levels of 2-oxoglutaric acid: significantly increased
  serum levels of N-acetylglutamic acid: not altered
  serum levels of arginine: not altered
  serum levels of pyruvic acid: not altered
  serum levels of serine: not altered
  serum levels of β-alanine: not altered
[2]; rat hippocampus
  Aco2 gene expression: 1.1340 ± 0.1248
[2]
  mRNA levels of Aco2: did not alter; also recorded: not altered
[2]; rat prefrontal cortex
  Aco2 gene expression: 0.9921 ± 0.1576
[3]; rat hippocampus
  Idh3a gene expression: 1.2250 ± 0.2326
[3]
  mRNA levels of Idh3a: did not alter; also recorded: not altered
[3]; rat prefrontal cortex
  Idh3a gene expression: 1.3420 ± 0.5725
[4]; rat hippocampus
  Idh3b gene expression: 1.3074 ± 0.2494
[4]
  mRNA levels of Idh3b: did not alter; also recorded: not altered
[4]; rat prefrontal cortex
  Idh3b gene expression: 1.3440 ± 0.4424

## CCCC(CCC)C(=O)[O-].[Na+] [VPA, valproic acid sodium salt]
[1]
  2,3-Diphosphoglyceric acid Mean: 2.1
  2-Hydroxyglutaric acid Mean: 1.5
  2-Oxoglutaric acid Mean: 29
  2-Oxoisovaleric acid Mean: 15
  2-Phosphoglyceric acid Mean: 0.6
  3-Phosphoglyceric acid Mean: 5.0
  ADP-ribose Mean: 0.13
  AMP Mean: 0.4
  ATP Mean: 4.2
  Ala Mean: 757
  Arg Mean: 206
  Argininosuccinic acid Mean: 0.4
  Asn Mean: 77
  Asp Mean: 12
  Betaine Mean: 287
  Carnitine Mean: 78
  Carnosine Mean: 0.2
  Choline Mean: 13
  Citric acid Mean: 151
  Citrulline Mean: 92
  Creatine Mean: 211
  Creatinine Mean: 25
  Cystathionine Mean: 1.1
  Fructose 1,6-diphosphate Mean: 0.3
  Fructose 6-phosphate Mean: 0.09
  Fumaric acid Mean: 2.6
  GDP Mean: 0.4
  GMP Mean: 0.07
  GTP Mean: 1.9
  Gln Mean: 1,001
  Glu Mean: 173
  Glucose 6-phosphate Mean: 0.6
  Glutathione (GSSG) Mean: 0.4
  Gly Mean: 488
  Glycerol 3-phosphate Mean: 3.5
  Glycolic acid Mean: 11
  His Mean: 90
  Hydroxyproline Mean: 65
  IMP Mean: 0.13
  Ile Mean: 119
  Isocitric acid Mean: 8.2
  Lactic acid Mean: 2,751
  Leu Mean: 207
  Lys Mean: 696
  Malic acid Mean: 12
  Met Mean: 53
  Mevalonic acid Mean: 1.5E−04
  N,N-Dimethylglycine Mean: 11
  N-Carbamoylaspartic acid Mean: 0.02
  NAD^+ Mean: 1.1
  Ornithine Mean: 76
  Phe Mean: 65
  Phosphocreatine Mean: 0.9
  Pro Mean: 220
  Putrescine Mean: 0.3
  Pyruvic acid Mean: 107
  Ribose 1-phosphate Mean: 0.4
  Ribose 5-phosphate Mean: 0.04
  Ribulose 5-phosphate Mean: 0.2
  Sarcosine Mean: 5.5
  Ser Mean: 319
  Succinic acid Mean: 10
  Thr Mean: 217
  Trp Mean: 110
  Tyr Mean: 89
  UDP-glucose Mean: 0.6
  Urea Mean: 5,050
  Uric acid Mean: 25
  Val Mean: 290
  cAMP Mean: 0.05
  cGMP Mean: 0.02
  cis-Aconitic acid Mean: 3.1
  β-Ala Mean: 1.9
[1]; rats, vs control
  serum levels of N-acetylglutamic acid: not altered
  serum levels of arginine: not altered
  serum levels of pyruvic acid: not altered
  serum levels of serine: not altered
  serum levels of β-alanine: not altered
[2]; rat hippocampus
  Aco2 gene expression: 1.0358 ± 0.0499
[2]; sodium salt
  mRNA levels of Aco2: did not alter; also recorded: not altered
[2]; rat prefrontal cortex
  Aco2 gene expression: 0.9505 ± 0.1596
[3]; sodium salt
  mRNA levels of Idh3a: did not alter; also recorded: not altered
[3]; rat prefrontal cortex
  Idh3a gene expression: 1.2546 ± 0.3578
[4]; rat hippocampus
  Idh3b gene expression: 1.1512 ± 0.1377
[4]; sodium salt
  mRNA levels of Idh3b: did not alter; also recorded: not altered
[4]; rat prefrontal cortex
  Idh3b gene expression: 1.2265 ± 0.2128
